Tested on: monocotyledonous and dicotyledonous weed plants
Test: Post-emergence greenhouse test, herbicidal action scored visually (weeds not split)
Format: in vivo
Details: with Genapol X 150, X 200, O 200 or Sapogenat T130, T 200, T 300, T 400, T 500 at e.g. 50, 100, 300, 500 g/ha, vs no surfactant or low-EO surfactant (Genapol O 060, Sapogenat T 040)
Method: Seeds or rhizome pieces of monocotyledonous and dicotyledonous weed plants were placed in sandy loamy soil in plastic pots, covered with soil and grown in the greenhouse under favorable growth conditions. Three weeks after sowing, the test plants were treated in the three-leaf stage. The compounds according to the invention which were formulated in the form of wettable powders or emulsion concentrates were sprayed onto the green plant parts at an application rate of 600 to 800 l of water/ha (converted), in various dosages. After the test plants had been left to stand in the greenhouse under optimum growth conditions for 3 to 4 weeks the effect of the preparations was scored visually by comparison with untreated controls.

Row | SMILES | action of the herbicide when combined with a high-EO surfactant (herbicide 80 g/ha) | action of the herbicide when combined with a high-EO surfactant (herbicide 200 g/ha)
1 | CS(=O)(=O)c1ccc(C(=O)C2C(=O)CCCC2=O)c(Cl)c1COCC(F)(F)F [Herbicide A9] | increased markedly | 
2 | CCS(=O)(=O)c1ccc(C(=O)C2C(=O)CCCC2=O)c(Cl)c1C1=NOC(CC#N)C1 (stereo not shown) [Herbicide A4] | increased markedly | 
3 | CCOCC1CC(c2c(S(=O)(=O)CC)ccc(C(=O)C3C(=O)CCCC3=O)c2Cl)=NO1 (stereo not shown) [Herbicide A6] | increased markedly | 
4 | CS(=O)(=O)c1ccc(C(=O)C2C(=O)CCCC2=O)c([N+](=O)[O-])c1 [Herbicide A1] |  | increased markedly
